# Patent US11292791B2 (priority 2017, dated 2022)
# Biological target: BRD4 (Homo sapiens (Human), UniProt O60885)
# Conditions: read-out: BRD4 IC50 (μM gmean)
row,Structure (SMILES),IC50 [µM]
1,COC(=O)N1c2ccc3c(nc(C(C)Cn4cccn4)n3C3CCS(=O)(=O)CC3)c2CC[C@@H]1C (some centres unmarked) [Example 754],1 to 1000
2,COC(=O)N1c2ccc3c(nc(CC(=O)N4CCCC4)n3[C@@H]3CCC[C@@H](C(=O)O)C3)c2CC[C@@H]1C [Example 798],1 to 1000
3,COC(=O)N1c2ccc3c(nc(Cc4ccc(C(F)(F)F)nn4)n3[C@@H]3CCC[C@@H](C(=O)O)C3)c2CC[C@@H]1C [Example 777],1 to 1000
4,COC(=O)N1c2ccc3c(nc(CC(C(=O)O)c4ccc(C)cc4)n3C3CCCOC3)c2CC[C@@H]1C (some centres unmarked) [Example 872],1 to 1000
5,COC(=O)N1c2ccc3c(nc(CCc4cccnc4)n3C)c2CC[C@@H]1C [Example 13],1 to 1000
6,COC(=O)N1c2ccc3c(nc(C(C)Cn4cc(Cl)cn4)n3C3CCCC(C(=O)O)C3)c2CC[C@@H]1C (some centres unmarked) [Example 443],1 to 1000
7,COC(=O)N1c2ccc3c(nc(C(C)Cc4ccc(F)c(F)c4)n3C3CCCC(C(=O)O)C3)c2CC[C@@H]1C (some centres unmarked) [Example 405],1 to 1000
8,COC(=O)N1c2ccc3c(nc(Cc4ncc(Cl)cn4)n3[C@@H]3CCC[C@@H](C(=O)O)C3)c2CC[C@@H]1C [Example 828],1 to 1000
9,COC(=O)N1c2ccc3c(nc(COC4CCCCC4)n3[C@@H]3CCC[C@@H](C(=O)O)C3)c2CC[C@@H]1C [Example 702],1 to 1000
10,COC(=O)N1c2ccc3c(nc(CC(C(=O)O)c4ccc(F)c(F)c4)n3C3CCCC3)c2CC[C@@H]1C (some centres unmarked) [Example 447],1 to 1000
11,COC(=O)N1c2ccc3c(nc(Cc4cccc(OC(C)C)n4)n3[C@H]3CC[C@H](C(=O)O)CC3)c2CC[C@@H]1C [Example 780],1 to 1000
12,COC(=O)N1c2ccc3c(nc(CCc4ccccc4)n3C)c2CC[C@@H]1C [Example 10],1 to 1000
13,COC(=O)N1c2ccc3c(nc(CC(C(=O)O)c4ccc5ccccc5c4)n3C3CCCOC3)c2CC[C@@H]1C (some centres unmarked) [Example 870],1 to 1000
14,COC(=O)N1c2ccc3c(nc(C(NC(C)=O)c4ccccc4)n3C3CCC(C(=O)O)CC3)c2CC[C@@H]1C (some centres unmarked) [Example 717],1 to 1000
15,COC(=O)N1c2ccc3c(nc(CCc4cnc(C)o4)n3[C@H]3CC[C@H](C(=O)O)CC3)c2CC[C@@H]1C [Example 33],1 to 1000
16,COC(=O)N1c2ccc3c(nc(CCn4cccn4)n3CC(=O)N(C)C3CCOCC3)c2CC[C@@H]1C [Example 356],1 to 1000
17,COC(=O)N1c2ccc3c(nc(CCn4ccccc4=O)n3CC(=O)NCC3(O)CCC3)c2CC[C@@H]1C [Example 390],1 to 1000
18,COC(=O)N1c2ccc3c(nc(C(C)Cn4ccc(C)n4)n3C3CCC(C(=O)O)CC3)c2CC[C@@H]1C (some centres unmarked) [Example 824],1 to 1000
19,COC(=O)N1c2ccc3c(nc(CCn4cccn4)n3CCN3CC[C@@H](NC(C)=O)C3)c2CC[C@@H]1C [Example 309],1 to 1000
20,COC(=O)N1c2ccc3c(nc(COC4CCCC4)n3[C@@H]3CCC[C@@H](C(=O)O)C3)c2CC[C@@H]1C [Example 711],1 to 1000
21,COC(=O)N1c2ccc3c(nc(Nc4ccncc4F)n3[C@@H]3CCC[C@@H](C(=O)O)C3)c2CC[C@@H]1C [Example 941],1 to 1000
22,COC(=O)N1c2ccc3c(nc(CCn4cccn4)n3[C@H]3CC[C@H](C(=O)O)CC3)c2CC[C@@H]1C [Example 31],1 to 1000

row,Structure (SMILES),IC50 [µM]
1,COC(=O)N1c2ccc3c(nc(CCn4ccccc4=O)n3CC(=O)N3CC[C@H](O)C3)c2CC[C@@H]1C [Example 399],1 to 1000
2,"COC(=O)N1c2ccc3c(nc(C[C@H](C)c4ccccc4)n3C)c2CC[C@@H]1C [Example 2, methyl (S)-3,7-dimethyl-2-((S)-2-phenylpropyl)-3,7,8,9-tetrahydro-6H-imidazo[4,5-f]quinoline-6-carboxylate]",1 to 1000
3,COC(=O)N1c2ccc3[nH]c(Cc4ccccc4)nc3c2CC[C@@H]1C [Example 9],1 to 1000
4,"COC(=O)N1c2ccc3c(nc(Cc4ccccc4)n3[C@@H]3CCC[C@H](c4nnn[nH]4)C3)c2CC[C@@H]1C [Example 279, methyl (S)-3-((1R,3S)-3-(1H-tetrazol-5-yl)cyclohexyl)-2-benzyl-7-methyl-3,7,8,9-tetrahydro-6H-imidazo[4,5-f]quinoline-6-carboxylate]",1 to 1000
5,COC(=O)N1c2ccc3c(nc(CC(C(=O)O)c4ccc(C)c(F)c4)n3C3CCCOC3)c2CC[C@@H]1C (some centres unmarked) [Example 845],1 to 1000
6,COC(=O)N1c2ccc3c(nc(CCn4ccccc4=O)n3CC(=O)N(C)CC(=O)N(C)C)c2CC[C@@H]1C [Example 380],1 to 1000
7,COC(=O)N1c2ccc3c(nc(C(C)Cn4ccc(C)n4)n3C3CCC(C(=O)O)CC3)c2CC[C@@H]1C (some centres unmarked) [Example 526],1 to 1000
8,COC(=O)N1c2ccc3c(nc(CCn4cccn4)n3CC(=O)N(C)CCO)c2CC[C@@H]1C [Example 350],1 to 1000
9,COC(=O)N1c2ccc3c(nc(C(C)Cc4cnn(C)c4)n3C3CCNCC3)c2CC[C@@H]1C (some centres unmarked) [Example 928],1 to 1000
10,COC(=O)N1c2ccc3c(nc(Cc4ccc(C)c(F)c4)n3[C@@H]3CCC[C@@H](C(=O)O)C3)c2CC[C@@H]1C [Example 471],1 to 1000
11,"COC(=O)N1c2ccc3c(nc(CCc4ccccc4)n3CCN(C)C)c2CC[C@@H]1C [Example 242, methyl-(7S)-3-[2-(dimethylamino)ethyl]-7-methyl-2-(2-phenylethyl)-3H,6H,7H,8H,9H-imidazo[4,5-f]quinoline-6-carboxylate]",1 to 1000
12,COC(=O)N1c2ccc3c(nc(N(C)c4cccc(F)c4)n3[C@H]3CC[C@H](C(=O)O)CC3)c2CC[C@@H]1C [Example 613],1 to 1000
13,COC(=O)N1c2ccc3c(nc(CCn4cccn4)n3CC(=O)NCC3CCOCC3)c2CC[C@@H]1C [Example 357],1 to 1000
14,COC(=O)N1c2ccc3c(nc(CC(C(=O)O)c4ccccc4)n3C3COCC(F)(F)C3)c2CC[C@@H]1C (some centres unmarked) [Example 602],1 to 1000
15,"COC(=O)N1c2ccc3c(nc([C@@H](C)c4ccccc4)n3C3CCNCC3)c2CC[C@@H]1C [Example 59, methyl (S)-7-methyl-2-((S)-1-phenylethyl)-3-(piperidin-4-yl)-3,7,8,9-tetrahydro-6H-imidazo[4,5-f]quinoline-6-carboxylate]",1 to 1000
16,COC(=O)N1c2ccc3c(nc(CC(C(=O)O)c4ccc(C)c(F)c4)n3C3CCCOC3)c2CC[C@@H]1C (some centres unmarked) [Example 446],1 to 1000
17,COC(=O)N1c2ccc3c(nc(CC(C(=O)O)c4ccccc4)n3C3CCCC(OC)C3)c2CC[C@@H]1C (some centres unmarked) [Example 455],1 to 1000
18,COC(=O)N1c2ccc3c(nc(Cn4ccccc4=O)n3[C@H]3CC[C@H](O)CC3)c2CC[C@@H]1C [Example 71],1 to 1000
19,COC(=O)N1c2ccc3c(nc(Cc4cncc(OC(C)C)c4)n3[C@@H]3CCC[C@@H](C(=O)O)C3)c2CC[C@@H]1C [Example 775],1 to 1000
20,COC(=O)N1c2ccc3c(nc(CCn4cccn4)n3CC(=O)NCC#N)c2CC[C@@H]1C [Example 366],1 to 1000
21,COC(=O)N1c2ccc3c(nc(CC4CCCCC4O)n3C3CCCC(C(=O)O)C3)c2CC[C@@H]1C (some centres unmarked) [Example 614],1 to 1000
22,COC(=O)N1c2ccc3c(nc(C(O)c4cc5c(cn4)OCC5)n3C3CCCC(C(=O)O)C3)c2CC[C@@H]1C (some centres unmarked) [Example 636],1 to 1000

row,Structure (SMILES),IC50 [µM]
1,COC(=O)N1c2ccc3c(nc(N(C)c4ccc(C#N)cc4)n3[C@H]3CC[C@H](C(=O)O)CC3)c2CC[C@@H]1C [Example 769],1 to 1000
2,COC(=O)N1c2ccc3c(nc(Cc4ccccc4)n3[C@H]3C[C@@H](C(=O)O)C3)c2CC[C@@H]1C [Example 20],1 to 1000
3,COC(=O)N1c2ccc3c(nc(CCc4cnn(C)c4)n3[C@H]3CC[C@H](C(=O)O)CC3)c2CC[C@@H]1C [Example 34],1 to 1000
4,COC(=O)N1c2ccc3c(nc(C4(Cn5cccn5)CC4)n3[C@@H]3CCC[C@@H](C(=O)O)C3)c2CC[C@@H]1C [Example 753],1 to 1000
5,COC(=O)N1c2ccc3c(nc(CC(C(=O)O)c4ccc5ccccc5c4)n3C3CCCOC3)c2CC[C@@H]1C (some centres unmarked) [Example 468],1 to 1000
6,COC(=O)N1c2ccc3c(nc(CCn4cccn4)n3CCNCCC#N)c2CC[C@@H]1C [Example 306],1 to 1000
7,COC(=O)N1c2ccc3c(nc(CC(C(=O)O)c4ccc(C)cc4)n3C3CCCOC3)c2CC[C@@H]1C (some centres unmarked) [Example 539],1 to 1000
8,COC(=O)N1c2ccc3c(nc(CCn4ccccc4=O)n3CC(=O)N(C)CC(C)(C)O)c2CC[C@@H]1C [Example 389],1 to 1000
9,COC(=O)N1c2ccc3c(nc(CC(C(=O)O)c4ccc(F)cc4)n3C3CCCOC3)c2CC[C@@H]1C (some centres unmarked) [Example 510],1 to 1000
10,COC(=O)N1c2ccc3c(nc(CC(C(=O)O)c4cccc(F)c4)n3C3CCCOC3)c2CC[C@@H]1C (some centres unmarked) [Example 490],1 to 1000
11,COC(=O)N1c2ccc3c(nc(Cc4ccccc4)n3C3CCS(=O)(=O)CC3)c2CC[C@@H]1C [Example 254],1 to 1000
12,COC(=O)N1c2ccc3c(nc(C(C)Cn4cccn4)n3C3CCS(=O)(=O)C3)c2CC[C@@H]1C (some centres unmarked) [Example 771],1 to 1000
13,COC(=O)N1c2ccc3c(nc(Cc4ccccc4)n3[C@H]3CC[C@H](c4nnn[nH]4)CC3)c2CC[C@@H]1C [Example 283],1 to 1000
14,COC(=O)N1c2ccc3c(nc(CCn4ccccc4=O)n3CC(=O)N3CCC(C#N)CC3)c2CC[C@@H]1C [Example 396],1 to 1000
15,COC(=O)N1c2ccc3c(nc(CC(C(=O)O)c4cccc(C(F)F)c4)n3C3CCCOC3)c2CC[C@@H]1C (some centres unmarked) [Example 676],1 to 1000
16,COC(=O)N1c2ccc3c(nc(CCn4ccccc4=O)n3CCN(C)C3CCOCC3)c2CC[C@@H]1C [Example 325],1 to 1000
17,COC(=O)N1c2ccc3c(nc(C(C)Cn4cc(C)cn4)n3C3CCS(=O)(=O)C3)c2CC[C@@H]1C (some centres unmarked) [Example 949],1 to 1000
18,COC(=O)N1c2ccc3c(nc(Cc4ccc(OC)c(OC)c4)n3[C@H]3CC[C@H](C(=O)O)CC3)c2CC[C@@H]1C [Example 740],1 to 1000
19,COC(=O)N1c2ccc3c(nc(CC(C(=O)O)c4ccccc4)n3-c3ccc(C#N)cc3)c2CC[C@@H]1C (some centres unmarked) [Example 680],1 to 1000
20,COC(=O)N1c2ccc3c(nc(CCn4nccn4)n3[C@H]3CC[C@H](C(=O)O)CC3)c2CC[C@@H]1C [Example 32],1 to 1000
21,COC(=O)N1c2ccc3c(nc(CCC4CCOCC4)n3[C@@H]3CCC[C@@H](C(=O)O)C3)c2CC[C@@H]1C [Example 648],1 to 1000
